# Results: patent US11213509B2, “Compositions and methods for treating traumatic brain injury” (Ischemix, LLC, priority 2017, dated 2022)
# Columns and labels:
# [1] = test system: fluid percussion model of diffused traumatic brain injury (TBI) in rats; test: Limb placing test, fluid percussion model of diffused TBI; assay type: in vivo, rat; conditions: vs vehicle, p<0.001, starting 1 day following TBI
# Method: On the day before TBI surgery (Day −1), rats were anesthetized with 3% isoflurane in a mixture of nitrous oxide and oxygen (2:1) for induction of anesthesia and then maintained at 1-3% isoflurane in a mixture of nitrous oxide and oxygen (2:1). The surgical site skin was shaved, and the rat was then placed in a stereotaxic frame. Buprenorphine SR, s.c, (0.9-1.2 mg/kg Zoopharm: Lot: BSR1-142111) and Cefazolin, i.p., (40-50 mg/kg; Hospira: Lot: 101D032) was given at this time. The skull was exposed through a midline incision. A parasagittal craniotomy (5 mm) using a trephine drill was performed at 1 mm posterior to bregma and 1 mm lateral to the midline (outer circumference). A sterile plastic injury tube (the plastic connector hub of a sterile needle cut 1 cm in length and trimmed to fill the craniotomy securely) was placed over the exposed dura and bonded by super glue to the skull. Dental cement was then poured around the injury tube to obtain a complete seal. After the dental cement had hardened, the injury tube was filled with sterile saline and the skin was closed by surgical clips. The animals were then returned to a clean home cage after recovery from the anesthesia.
# (§1) On the day of TBI surgery (Day 0), rats were re-anesthetized with 3% isoflurane in a mixture of nitrous oxide and oxygen (2:1), intubated, connected to a respirator and ventilated with 1-2% isoflurane in a mixture of nitrous oxide and oxygen (2:1). […] The amplitude of the resulting pressure pulse was measured in atmospheres by a pressure transducer. […]
# (§2) Dosing solutions were prepared in a blinded fashion with H, I, M, O and Z labels ready to use. […]
# Limb placing tests were divided into both forelimb and hindlimb tests. For the forelimb-placing test, the examiner held the rat close to a tabletop and scored the rat's ability to place the forelimb on the tabletop in response to whisker, visual, tactile, or proprioceptive stimulation. For the hindlimb placing test, the examiner assessed the rat's ability to place the hindlimb on the tabletop in response to tactile and proprioceptive stimulation. […]
# [2] = test system: mitochondrial reactive oxygen species generation (mtROS); test: Mitochondrial reactive oxygen species generation 24 hours post-CCI, focal TBI model in piglets; assay type: in vivo; conditions: p<0.0001 vs placebo
# Method: Study Design: A blinded, placebo controlled proof of concept trial of CMX-2043 was conducted in four-week-old piglets (8-10 kg). […] Sixteen piglets (n=16) were designated into three cohorts: 1) Controlled cortical impact (CCI) at the rostral gyrus treated with a bolus of CMX-2043 (n=5), 2) CCI injured animals treated with placebo (n=5) and 3) sham animals (n=6). CMX-2043 treated animals received an intravenous loading bolus of CMX-2043 (13.4 mg/kg) 1 hour post-TBI and a 4.5 mg/kg bolus at 13 hours post-TBI. Subjects were intubated, ventilated and anesthesia maintained on isoflurane (1.0%). Buprenorphine (0.02 mg/kg IM) was administered for analgesia immediately following intubation. Monitors recorded oxygen saturation, heart rate, respiration rate, rectal temperature, and end tidal CO2. […] All piglets were sacrificed between 24-25 hours post-TBI.
# Mitochondrial Respiration and ROS Production: Twenty four hours post-CCI the ipsilateral penumbra and mirrored contralateral cortex were harvested. The rate of oxygen consumption was recorded via high-resolution Oroboros Oxygraph-2k™ with a specific Substrate-Uncouple-Inhibitor-Titration Protocol (SUIT). […] Maximal reserve capacity of the electron transfer system (ETSCI+CII) was measured by titrating the protonophore carbonyl cyanide p-(trifluoro-methoxy) phenylhydrazone (FCCP). […]
# [3] = test system: fluid percussion model of diffused traumatic brain injury (TBI) in rats; test: Body swing test, fluid percussion model of diffused TBI; assay type: in vivo, rat; conditions: 45 mg/kg i.v. at 30 minutes and 24 hours after TBI; Day 28; vs vehicle, p<0.05
# Method: On the day before TBI surgery (Day −1), rats were anesthetized with 3% isoflurane in a mixture of nitrous oxide and oxygen (2:1) for induction of anesthesia and then maintained at 1-3% isoflurane in a mixture of nitrous oxide and oxygen (2:1). The surgical site skin was shaved, and the rat was then placed in a stereotaxic frame. Buprenorphine SR, s.c, (0.9-1.2 mg/kg Zoopharm: Lot: BSR1-142111) and Cefazolin, i.p., (40-50 mg/kg; Hospira: Lot: 101D032) was given at this time. The skull was exposed through a midline incision. A parasagittal craniotomy (5 mm) using a trephine drill was performed at 1 mm posterior to bregma and 1 mm lateral to the midline (outer circumference). […]
# as §1, §2
# The rat was held approximately one inch from the base of its tail. […] A swing was recorded whenever the rat moved its head out of the vertical axis to either side. The rat must have returned to the vertical position for the next swing to be counted. Thirty (30) total swings were counted. […]
structure (smiles),measurement,setting,value
"CC(NC(=O)C(CCC(=O)O)NC(=O)CCCCC1CCSS1)C(=O)O [CMX-2043, N—(R)-lipoyl-glutamylalanine]",Limb placing test recovery,[1]; 15 mg/kg i.v. at 30 minutes and 24 hours after TBI,superior recovery compared to vehicle-treated animals
same,Limb placing test recovery,[1]; 30 mg/kg i.v. at 30 minutes and 24 hours after TBI,superior recovery compared to vehicle-treated animals
same,Limb placing test recovery,[1]; 45 mg/kg i.v. at 30 minutes and 24 hours after TBI,superior recovery compared to vehicle-treated animals
same,Mitochondrial ROS (mtROS) generation,[2]; contralateral,5.13±1.67 H2O2/(μmol O2/s*mg)
same,Mitochondrial ROS (mtROS) generation,[2]; ipsilateral,8.28±1.47 H2O2/(μmol O2/s*mg)
same,Body swing test recovery,[3],superior recovery compared to vehicle-treated animals
